Data: the METLIN SMRT retention time set (Domingo-Almenara et al. 2019)

Assay: gradient 5% acetonitrile 3 min, to 50% in 2 min, to 85% in 15 min, held 3 min, 100 µL/min
Settings: column: Zorbax Extend-C18 2.1 x 50 mm; eluents: water / acetonitrile, 0.1% formic acid
How it was run: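 Using water and acetonitrile that each contained 0.1% formic acid, mixtures of ~100 pure standards were separated at 100 μL/min on a Zorbax Extend-C18 column (2.1 × 50 mm, 1.8 μm). The HPLC fed a quadrupole time-of-flight mass spectrometer working in positive and negative ionization mode, with dead and dwell volumes of 40 μL and 900 μL. Data were acquired over 3 months. Retention time was read from computationally picked adduct peaks after manual inspection of each.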

| Structure (SMILES) | RP-LC retention time |
| --- | --- |
| COc1ccccc1-c1noc(C2CCCN2C(=O)COc2ccccc2C)n1 (stereo not drawn) | 939 s |
| Cc1nc(-c2noc(-c3ccncc3)n2)cn1CC(=O)N1CCN(c2ccc(F)cc2)CC1 | 689 s |
| CC1=C(c2ccc(C)cc2)S(=O)(=O)N=C1N1CCCN(C(=O)Cn2ccnc2C)CC1 | 616 s |
| COc1ccc(C(=O)NCc2c(C)noc2C)cc1F | 693 s |
| CCN(CC)C(=O)c1ccc(-c2nnc3ccc(NC(=O)C4CCC4)cn23)cc1 | 745 s |
| O=C(NC1CCCCCC1)c1cc(C2CC2)[nH]n1 | 792 s |
| N[C@@H](CC(=O)N1CCn2c(nnc2C(F)(F)F)C1)Cc1cc(F)c(F)cc1F | 675 s |
| CC(C)Cn1c(=O)c(C(=O)NCCc2ccccn2)nc2cccnc21 | 604 s |
| Cc1ccc(/C=C/S(=O)(=O)N2CCN(c3ccc(-c4cccs4)nn3)CC2)cc1 | 929 s |
| CC(C)Cc1ccc(-c2csc(NC(=O)c3cnccn3)n2)cc1 | 1130 s |
| Cc1noc2nc(CCC(=O)NCCCc3ccccc3)nc(N3CCOCC3)c12 | 760 s |
| Cc1cc(N2CCCC2)n2nc(-c3ccccc3C)nc2n1 | 729 s |
| Cc1ccc(S(=O)(=O)N2CCC(C(=O)NCc3cscn3)CC2)cc1C | 748 s |
| CNC(=O)c1ccc(-c2nc3cc(NS(=O)(=O)c4ccc(C(C)C)cc4)ccc3n2C)cc1 | 713 s |
| CC(C)NC(=O)c1ccc(OCC2CCN(C(=O)c3c(F)cccc3F)CC2)cc1 | 862 s |
| Cc1ccc(NC(=O)N2CCN(c3cnn4cnnc4c3)CC2)cc1 | 627 s |
| Cc1nc(-c2cccc(NC(=O)c3coc(NC(=O)c4ccco4)n3)c2)cs1 | 688 s |
| COC[C@@H]1CN(Cc2ccc3[nH]ccc3c2)C[C@H]1c1ccncc1 | 581 s |
| CCN(c1ccccc1C)S(=O)(=O)c1cc(-c2[nH]ncc2C(=O)N(C)C)oc1C | 782 s |
| Cc1cccc(-c2nnc(-c3nc(NCc4ccco4)c4ccccc4n3)o2)c1 | 1010 s |
| CCOC(=O)c1[nH]c(C)c(CCC(=O)N2CCC(C(=O)NCc3ccc(SC)cc3)CC2)c1C | 815 s |
| CCn1c(N2CCN(C(=O)Nc3cc(OC)c(OC)c(OC)c3)CC2)nc2ccccc21 | 623 s |

| Structure (SMILES) | RP-LC retention time |
| --- | --- |
| CCN(CC)c1ncnc2c(-c3ccccc3)cn(CC(=O)NCC3CCCO3)c12 (stereo not drawn) | 666 s |
| NS(=O)(=O)c1ccc(Nc2ccccc2)c([N+](=O)[O-])c1 | 856 s |
| O=C(NC1CC1)C1CCN(Cc2cc3ccccc3n2Cc2ccc(Cl)cc2)CC1 | 717 s |
| COc1ccc(N2C(=O)C3N=NN(Cc4nc(-c5cccc(C)c5)no4)C3C2=O)cc1OC (stereo not drawn) | 911 s |
| COc1ccc(NS(=O)(=O)c2cc(-c3nnc(C(=O)N4CCCC4)o3)sc2C)c(OC)c1 | 846 s |
| CN(C(=O)Cn1c(=O)oc2ccc(C(=O)N3CCCC3)cc21)C1CCCCC1 | 761 s |
| CC(C)Cc1noc(C2(F)CCN(S(=O)(=O)c3ccc(Cl)c(Cl)c3)CC2)n1 | 1300 s |
| CC1=C(C(=O)NCCCN2CC(C)CC(C)C2)C2(CCN(Cc3ccccc3)CC2)OC1=O (stereo not drawn) | 567 s |
| O=C(c1cccs1)N1CCCC(c2ccnc(-c3ccccc3)n2)C1 (stereo not drawn) | 1020 s |
| CCOc1ccccc1NC(=O)N1CCC(n2cnc3cc(Cl)ccc3c2=O)CC1 | 935 s |
| CCCn1nc(-n2cnnc2)c(NC(=O)c2cc(OC)cc(OC)c2)c1C | 682 s |
| Cc1cccc(Sc2nccnc2N2CCCC(C(=O)NCCCc3ccccc3)C2)c1 (stereo not drawn) | 1190 s |
| Cc1cc(C)n(-c2ccc(C(=O)NC3CCCCC3)cn2)n1 | 918 s |
| COCCOC1CCOC2(CCN(S(=O)(=O)c3cccc(OC)c3)CC2)C1 (stereo not drawn) | 818 s |
| CCNC(=O)c1nc(C(=O)NC(C)c2ccc(C)cc2)cs1 (stereo not drawn) | 843 s |
| C[C@H]1CN(C(=O)c2ccc(C#N)cc2)C[C@@H]1c1nc(-c2ccncc2)no1 | 717 s |
| Cc1ccccc1-n1c(/C=C\c2ccccn2)nc2ccccc2c1=O | 948 s |
| COC(=O)c1cccc(C(=O)Nc2cc(C)cc(C)c2)n1 | 931 s |
| CCc1cc(=O)n(CC(=O)Nc2ccc(C(F)(F)F)cc2)c(N2CCOCC2)n1 | 849 s |
| O=C(Nc1cccc(F)c1)C1CCc2nc(N3CCOCC3)ncc2C1 (stereo not drawn) | 778 s |
| CC(C)Cn1c(=O)c(N2CCN(S(=O)(=O)c3ccccc3)CC2)nc2ccncc21 | 612 s |
| CCNC(=O)C1CCN(c2cc(SCC(=O)Nc3ccccc3OCC)ncn2)CC1 | 760 s |

| Structure (SMILES) | RP-LC retention time |
| --- | --- |
| Cn1nc(-c2nnc(-c3ccc(F)cc3)o2)c2c1CCN(S(=O)(=O)c1ccc(F)cc1)C2 | 903 s |
| Cc1oc(C2CCN(C(=O)CCc3cc(Cl)no3)CC2)nc1C(=O)N1CCOCC1 | 684 s |
| Cc1ccc(C)c(NC(=O)Cn2cnc3nc(N4CCCC(C(=O)NC5CC5)C4)sc3c2=O)c1 (stereo not drawn) | 683 s |
| COc1ccc(NC(=O)CN2C(=O)C3CCCN3C(=O)c3ccc(F)cc32)cc1 (stereo not drawn) | 693 s |
| COc1ccc(CNC(=O)c2cn(C)c3ncccc23)cc1 | 711 s |
| CC(=O)Nc1nc(-c2ccc3c(c2)N(C)C(=O)CO3)cs1 | 700 s |
| CCCCn1c(CN2CCOCC2)nc2cc(NC(=O)CC(C)C)ccc21 | 665 s |
| Cc1noc(C)c1S(=O)(=O)N1CCC(C(=O)NCCc2csc(-c3ccccc3)n2)CC1 | 877 s |
| CCn1ncn2cc(S(=O)(=O)Nc3ccc(F)cc3)cc2c1=O | 848 s |
| Cc1nc(-c2ccc(C(=O)NCc3ccc4c(c3)OCO4)cc2)cs1 | 844 s |
| N#Cc1ccc2ccn(CC(=O)N3CCCc4ccccc43)c2c1 | 963 s |
| CCOC(=O)c1nc(Nc2ccc(OC(C)C)cc2)c2ccccc2n1 | 888 s |
| CC1=C(c2ccc(F)cc2)S(=O)(=O)N=C1N1CCCN(C(=O)NC(C)C)CC1 | 746 s |
| COc1ccc(NC(=O)N2C[C@@H]3C[C@H]2C[C@@H]3NS(=O)(=O)c2ccccc2)c(C)c1 | 764 s |
| COc1cccc(-c2nc(-c3ccc4c(c3)ncn4CCN3CCCCC3)no2)c1OC | 680 s |
| NC(=O)c1nsc2c(=O)n(CC(=O)NC3CCCC3)cnc12 | 596 s |
| COc1ccc(-c2cn3c(CC(=O)N4CCc5ccccc54)csc3n2)cc1OC | 748 s |
| COCCC1CCN(C(=O)CN(C)C(=O)Cc2c(C)noc2C)CC1 | 627 s |
| O=C(NCc1cccs1)C1CCCN(S(=O)(=O)c2c[nH]c(C(=O)N3CCCC3)c2)C1 (stereo not drawn) | 734 s |
| Cc1ccc(OCC(=O)NC[C@@]23CCC[C@H]2N(C)C(=O)CC3)cc1 | 674 s |
| C=CCN1C(=O)C2(c3cc(Br)ccc31)c1[nH]c3ccccc3c1CCN2C(C)=O (stereo not drawn) | 929 s |
| O=C(NC(Cc1ccccc1)C(=O)N1CCN(c2ccccn2)CC1)c1ccc(Cl)cc1 (stereo not drawn) | 692 s |

| Structure (SMILES) | RP-LC retention time |
| --- | --- |
| CCS(=O)(=O)c1nc2ccc(NS(C)(=O)=O)cc2s1 | 699 s |
| Cc1nn(-c2ccc(C(=O)NCc3ccc4c(c3)OCO4)cc2)c2c1C(=O)CCC2 | 780 s |
| COCC1(O)CCOC2(CCN(Cc3ccc(F)cc3Cl)CC2)C1 (stereo not drawn) | 563 s |
| COCCn1c(C)cc(O)c(C(c2ccc(OC)cc2OC)N2CCCCC2)c1=O (stereo not drawn) | 688 s |
| O=C(Cc1csc2nc(-c3ccccc3)cn12)Nc1ccc2c(c1)OCCO2 | 744 s |
| COc1ccc(NC(=O)C2CCN(S(=O)(=O)c3ccc4[nH]c(=O)ccc4c3)CC2)c(OC)c1 | 663 s |
| CCC1Oc2ccc(S(=O)(=O)N3CCC(C(=O)Nc4cccc(Cl)c4C)CC3)cc2NC1=O (stereo not drawn) | 947 s |
| CCN1CCCC1CNC(=O)CC1CCN(S(=O)(=O)c2ccc3c(c2)CCN3C(C)=O)CC1 (stereo not drawn) | 597 s |
| CC1CCCN(C(=O)c2ccc(CN3CCN(Cc4ccc(F)cc4)C(=O)C3=O)cc2)C1 (stereo not drawn) | 788 s |
| O=C(CCc1nc(N2CCCCC2)c2c(-c3ccc(F)cc3)noc2n1)N1CCOCC1 | 902 s |
| COC(=O)c1cc2c(=O)n(Cc3ccc(OC)cc3)ccc2nc1C | 836 s |
| O=C(NCc1cccc2ccccc12)NCC1CCN(C(=O)Oc2ccccc2)CC1 | 866 s |
| Cc1ccc(NC(=O)N2CCC(c3nc(C(=O)N4CCCC4)c(C)o3)CC2)cc1C | 829 s |
| CCC(=O)NCc1nc2c(n1C)CN(S(=O)(=O)c1ccc(CC)cc1)CC2 | 581 s |
| CC1CCN(c2cc(C(=O)O)c3cc(NC(=O)c4ccc(Br)cc4)ccc3n2)CC1 | 689 s |
| Cc1nc(N)nc(Cl)c1CCC1OCCO1 | 673 s |
| COc1ccc(-c2cc(-c3ccccc3)nc3c2CC(=O)Nc2ccccc2-3)cc1OC | 1100 s |
| O=C(C1CCCC1)N1CC(c2nc(-c3ccc(F)cc3)no2)C2(CCOCC2)C1 (stereo not drawn) | 958 s |
| C=CCN1C(=O)C(C(=O)N2CCOCC2)C2CC1(C)Oc1ccccc12 (stereo not drawn) | 718 s |
| Cc1sc2ccn(CC(C)C)c(=O)c2c1C(=O)NCc1ccccc1F | 994 s |
| Cc1ccc(NC(=O)Nc2ccc3nncn3c2)c(C)c1 | 747 s |
| Cc1ccc2nc(-c3c(F)cccc3Cl)c(Nc3ccc4c(c3)OCCO4)n2c1 | 692 s |
